PMC9457941, “Synthesis and Kinase Inhibitory Potencies of Pyrazolo[3,4-g]isoquinolines” (Molecules, 2022)
Where two headings read alike, the source gives them in different places.

Columns and labels:
Format in all cases: biochemical
[1] = biological target: T1, MmCLK1 (Mus musculus, UniProt P22518); experiment: ADP-Glo kinase inhibition assay, CLK1; conditions: for remaining activity at 1 µM: read-out: CLK1 % residual activity at 1 μM; for remaining activity at 10 µM: read-out: CLK1 % residual activity at 10 μM
T1 construct: host or cells: bacteria
T1 sequence (P22518 whole entry): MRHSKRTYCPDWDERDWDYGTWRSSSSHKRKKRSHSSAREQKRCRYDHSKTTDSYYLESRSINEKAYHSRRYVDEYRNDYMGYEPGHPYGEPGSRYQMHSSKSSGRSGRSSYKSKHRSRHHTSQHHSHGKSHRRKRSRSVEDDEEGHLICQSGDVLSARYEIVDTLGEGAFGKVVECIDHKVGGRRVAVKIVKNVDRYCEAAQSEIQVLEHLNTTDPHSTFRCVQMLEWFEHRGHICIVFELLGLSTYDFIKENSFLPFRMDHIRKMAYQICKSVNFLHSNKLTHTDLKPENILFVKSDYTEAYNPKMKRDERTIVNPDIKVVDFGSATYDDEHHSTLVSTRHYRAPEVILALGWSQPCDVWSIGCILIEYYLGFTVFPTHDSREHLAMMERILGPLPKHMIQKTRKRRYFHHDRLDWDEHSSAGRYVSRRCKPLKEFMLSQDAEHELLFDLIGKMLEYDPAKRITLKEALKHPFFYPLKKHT
Protocol: (§1) Kinase enzymatic activities were assayed in 384 well plates using the ADP-GloTM assay kit (Promega, Madison, WI, USA) according to the manufacturer’s guidance. Briefly, the reactions were carried out in a final volume of 6 μL for 30 min at 30 °C in an appropriate kinase buffer (10 mM MgCl2, 1 mM EGTA, 1 mM DTT, 25 mM Tris-HCl pH 7.5, 50 μg/mL heparin), with either protein or peptide as substrate in the presence of 10 μM ATP (40 mM Tris pH 7.5, 20 mM MgCl2 and 0.1 mg/mL of BSA). Afterward, 6 μL of ADP-GloTM Kinase Reagent was added to stop the kinase reaction. After an incubation time of 50 min at room temperature (RT), 12 μL of Kinase Detection Reagent was added for 1 h at RT. The transmitted signal was measured using the Envision (Perkin Elmer, Waltham, MA, USA) microplate luminometer and expressed in relative light unit (RLU). In order to determine the half maximal inhibitory concentration (IC50), the assays were performed in duplicate in the absence or presence of increasing doses of the tested compounds. GraphPad Prism6 software (GraphPad Software, San Diego, CA, USA) was used to fit dose–response curves and to determine the IC50 values. Kinase activities are expressed in the percentage of maximal activity, i.e., measured in the absence of an inhibitor. Peptide substrates were obtained from Proteogenix (Schiltigheim, France).
(§2) The following protein kinases were analyzed in this study: CDK5/p25 (human, recombinant, expressed in bacteria) was assayed with 0.8 μg/μL of histone H1 as substrate; CDK9/CyclinT (human, recombinant, expressed by baculovirus in Sf9 insect cells) were assayed with 0.27 μg/μL of the following peptide: […], as substrate; CK1ε (human, recombinant, expressed by baculovirus in Sf9 insect cells) was assayed with 0.022 μg/μL of the following peptide: […]pAYSITA (“Sp” stands for phosphorylated serine) as CK1-specific substrate; GSK3β (human, recombinant, expressed by baculovirus in Sf9 insect cells) were assayed with 0.010 μg/μL of GS-1 peptide, a GSK-3-selective substrate ([…]pEDEEE); Haspin-kd (human, kinase domain, amino acids 470–798, recombinant, expressed in bacteria) was assayed with 0.007 μg/μL of histone H3 (1–21) peptide ([…]) as substrate; Pim-1 (human proto-oncogene, recombinant, expressed in bacteria) was assayed with 0.8 μg/μL of histone H1 as substrate; MmCLK1 (from Mus musculus, recombinant, expressed in bacteria) was assayed with 0.027 μg/μL of the following peptide: […] as substrate; RnDYRK1A-kd (Rattus norvegicus, amino acids 1–499 including the kinase domain, recombinant, expressed in bacteria, DNA vector kindly provided by Dr. W. Becker, Aachen, Germany) was assayed with 0.033 μg/μL of the following peptide: […] as substrate.

[2] = biological target: T2, CDK9/CyclinT (Homo sapiens, UniProt P50750); experiment: ADP-Glo kinase inhibition assay, CDK9/CyclinT; conditions: for remaining activity at 1 µM: read-out: CDK9 % residual activity at 1 μM; for remaining activity at 10 µM: read-out: CDK9 % residual activity at 10 μM
T2 construct: host or cells: Sf9 insect cells (baculovirus)
T2 sequence (O60563 whole entry): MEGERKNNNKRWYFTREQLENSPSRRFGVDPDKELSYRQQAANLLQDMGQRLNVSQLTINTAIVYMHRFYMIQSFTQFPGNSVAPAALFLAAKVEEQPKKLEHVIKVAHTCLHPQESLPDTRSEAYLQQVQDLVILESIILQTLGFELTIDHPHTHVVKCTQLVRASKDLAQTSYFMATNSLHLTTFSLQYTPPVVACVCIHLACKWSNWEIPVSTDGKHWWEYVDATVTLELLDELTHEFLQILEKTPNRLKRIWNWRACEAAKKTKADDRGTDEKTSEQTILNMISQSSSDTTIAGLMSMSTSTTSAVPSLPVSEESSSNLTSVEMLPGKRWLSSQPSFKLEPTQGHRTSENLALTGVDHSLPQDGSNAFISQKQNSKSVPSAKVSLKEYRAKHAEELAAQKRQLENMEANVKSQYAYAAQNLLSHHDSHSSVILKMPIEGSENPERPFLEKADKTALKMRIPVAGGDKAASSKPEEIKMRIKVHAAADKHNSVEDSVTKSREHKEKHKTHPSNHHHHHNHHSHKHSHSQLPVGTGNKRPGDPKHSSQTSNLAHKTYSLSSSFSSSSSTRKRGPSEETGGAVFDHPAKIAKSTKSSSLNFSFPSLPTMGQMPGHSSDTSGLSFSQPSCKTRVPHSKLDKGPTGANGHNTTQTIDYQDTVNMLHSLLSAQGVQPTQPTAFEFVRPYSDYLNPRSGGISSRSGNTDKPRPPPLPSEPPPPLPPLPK
T2 sequence (P50750 whole entry): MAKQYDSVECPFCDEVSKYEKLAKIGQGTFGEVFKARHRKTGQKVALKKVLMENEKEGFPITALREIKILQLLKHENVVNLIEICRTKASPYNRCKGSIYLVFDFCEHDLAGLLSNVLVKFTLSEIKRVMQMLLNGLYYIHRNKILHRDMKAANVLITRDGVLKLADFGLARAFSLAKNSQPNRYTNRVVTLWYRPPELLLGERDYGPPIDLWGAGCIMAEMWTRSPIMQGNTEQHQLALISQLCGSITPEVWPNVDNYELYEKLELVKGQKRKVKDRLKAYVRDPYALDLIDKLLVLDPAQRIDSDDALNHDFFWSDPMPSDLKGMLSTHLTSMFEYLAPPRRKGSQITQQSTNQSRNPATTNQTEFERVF
Protocol: as §1, §2

[3] = biological target: T3, CDK5/p25 (Homo sapiens, UniProt Q00535); experiment: ADP-Glo kinase inhibition assay, CDK5/p25; conditions: for remaining activity at 1 µM: read-out: CDK5 % residual activity at 1 μM; for remaining activity at 10 µM: read-out: CDK5 % residual activity at 10 μM
T3 construct: host or cells: bacteria
T3 sequence (Q00535 whole entry): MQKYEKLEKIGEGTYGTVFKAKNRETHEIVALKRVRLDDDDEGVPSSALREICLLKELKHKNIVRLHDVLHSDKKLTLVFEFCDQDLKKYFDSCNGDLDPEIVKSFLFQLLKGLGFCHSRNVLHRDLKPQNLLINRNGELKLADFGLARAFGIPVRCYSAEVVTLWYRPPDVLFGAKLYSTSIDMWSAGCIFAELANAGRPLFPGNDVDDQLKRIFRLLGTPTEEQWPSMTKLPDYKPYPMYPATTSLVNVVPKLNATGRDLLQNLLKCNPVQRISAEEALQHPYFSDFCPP
T3 sequence (Q15078 99-307, further chain): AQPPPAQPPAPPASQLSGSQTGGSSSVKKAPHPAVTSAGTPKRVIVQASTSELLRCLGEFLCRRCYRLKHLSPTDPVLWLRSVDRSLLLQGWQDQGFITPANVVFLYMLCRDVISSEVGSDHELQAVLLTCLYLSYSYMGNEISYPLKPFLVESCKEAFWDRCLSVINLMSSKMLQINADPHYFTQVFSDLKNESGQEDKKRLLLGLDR
Protocol: as §1, §2

[4] = biological target: T4, RnDYRK1A-kd (Rattus norvegicus, UniProt Q63470); experiment: ADP-Glo kinase inhibition assay, DYRK1A; conditions: for remaining activity at 1 µM: read-out: DYRK1A % residual activity at 1 μM; for remaining activity at 10 µM: read-out: DYRK1A % residual activity at 10 μM
T4 construct: RnDYRK1A-kd (Rattus norvegicus, amino acids 1–499 including the kinase domain, recombinant, expressed in bacteria); made in house; host or cells: bacteria
Protocol: as §1, §2

[5] = biological target: T5, GSK3β (Homo sapiens, UniProt P49841); experiment: ADP-Glo kinase inhibition assay, GSK3β; conditions: for remaining activity at 1 µM: read-out: GSK3 % residual activity at 1 μM; for remaining activity at 10 µM: read-out: GSK3 % residual activity at 10 μM
T5 construct: host or cells: Sf9 insect cells (baculovirus)
T5 sequence (P49841 whole entry): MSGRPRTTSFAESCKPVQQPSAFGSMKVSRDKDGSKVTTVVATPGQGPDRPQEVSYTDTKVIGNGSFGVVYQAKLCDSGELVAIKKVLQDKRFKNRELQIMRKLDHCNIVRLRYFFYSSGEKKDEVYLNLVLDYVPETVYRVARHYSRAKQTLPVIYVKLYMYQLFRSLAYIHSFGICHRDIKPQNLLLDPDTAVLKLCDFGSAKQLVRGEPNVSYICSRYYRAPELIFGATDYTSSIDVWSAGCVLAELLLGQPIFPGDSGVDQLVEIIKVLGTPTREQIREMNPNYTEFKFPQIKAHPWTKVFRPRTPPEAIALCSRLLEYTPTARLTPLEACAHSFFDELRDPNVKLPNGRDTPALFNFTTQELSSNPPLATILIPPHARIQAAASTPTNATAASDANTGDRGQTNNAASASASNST
Protocol: as §1, §2

[6] = biological target: T6, Haspin-kd (human, kinase domain, amino acids 470–798) (Homo sapiens, UniProt Q8TF76); experiment: ADP-Glo kinase inhibition assay, Haspin; conditions: for IC50: 10 μM ATP, duplicate; for remaining activity at 1 µM: read-out: Haspin % residual activity at 1 μM; for remaining activity at 10 µM: read-out: Haspin % residual activity at 10 μM
T6 construct: Haspin-kd (human, kinase domain, amino acids 470–798, recombinant, expressed in bacteria); host or cells: bacteria
T6 sequence (Q8TF76 470-798): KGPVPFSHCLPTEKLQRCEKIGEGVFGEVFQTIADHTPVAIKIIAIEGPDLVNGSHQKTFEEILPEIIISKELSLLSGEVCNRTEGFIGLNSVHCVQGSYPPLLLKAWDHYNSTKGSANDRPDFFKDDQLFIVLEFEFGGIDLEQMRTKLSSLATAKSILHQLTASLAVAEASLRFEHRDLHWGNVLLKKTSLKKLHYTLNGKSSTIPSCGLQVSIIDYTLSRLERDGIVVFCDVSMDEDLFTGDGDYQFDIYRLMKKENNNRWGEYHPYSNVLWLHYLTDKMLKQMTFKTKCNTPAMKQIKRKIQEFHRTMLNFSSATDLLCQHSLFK
Protocol: as §1

[7] = biological target: T7, CK1ε (Homo sapiens, UniProt P49674); experiment: ADP-Glo kinase inhibition assay, CK1ε; conditions: 10 μM ATP, duplicate; for remaining activity at 1 µM: 1 μM compound, read-out: CK1 % residual activity at 1 μM; for remaining activity at 10 µM: 10 μM compound, read-out: CK1 % residual activity at 10 μM
T7 construct: host or cells: Sf9 insect cells (baculovirus)
T7 sequence (P49674 whole entry): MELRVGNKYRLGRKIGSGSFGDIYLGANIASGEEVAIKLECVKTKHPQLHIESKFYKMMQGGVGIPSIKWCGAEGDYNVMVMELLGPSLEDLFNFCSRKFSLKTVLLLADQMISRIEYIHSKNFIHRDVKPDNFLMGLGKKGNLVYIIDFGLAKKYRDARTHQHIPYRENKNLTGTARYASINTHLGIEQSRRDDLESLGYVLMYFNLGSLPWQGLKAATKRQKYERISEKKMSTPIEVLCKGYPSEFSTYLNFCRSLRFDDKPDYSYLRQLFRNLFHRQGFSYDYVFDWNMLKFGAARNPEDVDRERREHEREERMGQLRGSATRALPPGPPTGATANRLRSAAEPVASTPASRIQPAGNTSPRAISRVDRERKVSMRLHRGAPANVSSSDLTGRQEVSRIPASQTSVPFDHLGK
Protocol: as §1, §2

[8] = biological target: T8, Pim-1 (Homo sapiens, UniProt P11309); experiment: ADP-Glo kinase inhibition assay, Pim-1; conditions: 10 μM ATP, duplicate; for remaining activity at 1 µM: 1 μM compound, read-out: PIM1 % residual activity at 1 μM; for remaining activity at 10 µM: 10 μM compound, read-out: PIM1 % residual activity at 10 μM
T8 construct: host or cells: bacteria
T8 sequence (P11309 whole entry): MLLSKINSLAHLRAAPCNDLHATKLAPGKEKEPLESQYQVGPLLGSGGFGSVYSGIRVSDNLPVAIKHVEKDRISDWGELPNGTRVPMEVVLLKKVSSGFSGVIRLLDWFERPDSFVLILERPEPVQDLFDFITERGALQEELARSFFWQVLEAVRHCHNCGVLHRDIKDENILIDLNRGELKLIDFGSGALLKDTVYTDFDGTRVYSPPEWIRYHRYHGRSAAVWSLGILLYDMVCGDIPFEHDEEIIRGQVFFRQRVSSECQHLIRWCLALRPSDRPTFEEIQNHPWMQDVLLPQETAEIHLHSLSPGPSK
Protocol: as §1, §2

[9] = 10 μM ATP, duplicate, read-out: CLK1 IC50
[10] = 10 μM ATP, duplicate, read-out: DYRK1A IC50

| Structure (SMILES) | remaining activity at 1 µM [1] [%] | remaining activity at 10 µM [1] [%] | remaining activity at 1 µM [2] [%] | remaining activity at 10 µM [2] [%] | remaining activity at 1 µM [3] [%] | remaining activity at 10 µM [3] [%] | remaining activity at 1 µM [4] [%] | remaining activity at 10 µM [4] [%] | remaining activity at 1 µM [5] [%] | remaining activity at 10 µM [5] [%] | IC50 [6] [nM] | remaining activity at 1 µM [6] [%] | remaining activity at 10 µM [6] [%] | remaining activity at 1 µM [7] [%] | remaining activity at 10 µM [7] [%] | remaining activity at 1 µM [8] [%] | remaining activity at 10 µM [8] [%] | IC50 [1, 9] [nM] | IC50 [4, 10] [nM] | also measured |
| --- | --- | --- | --- | --- | --- | --- | --- | --- | --- | --- | --- | --- | --- | --- | --- | --- | --- | --- | --- | --- |
| O=[N+]([O-])c1c2ccncc2cc2cn[nH]c12 [1a’] | 90 | 30 | 86 | 48 | 91 | 62 | 68 | 25 | 99 | 50 | 154 | 32 | 23 | 100 | 64 | 90 | 85 | – | – | IC50 ([1]; assumed on the basis of % of inhibition at 1 μM (less than 50%), read-out: CLK1 IC50 (assumed)): > 1000 nM; IC50 ([4]; assumed on the basis of % of inhibition at 1 μM (less than 50%), read-out: DYRK1A IC50 (assumed)): > 1000 nM |
| Cn1ncc2cc3cnccc3c([N+](=O)[O-])c21 [Compound 1b, 1-Methyl-9-nitro-1H-pyrazolo[3,4-g]isoquinoline] | 42 | 10 | 57 | 35 | 95 | 43 | 41 | 11 | 73 | 33 | 57 | 26 | 9 | 88 | 53 | 100 | 54 | 71 | 681 | – |
| CCn1ncc2cc3cnccc3c([N+](=O)[O-])c21 [Compound 1c, 1-Ethyl-9-nitro-1H-pyrazolo[3,4-g]isoquinoline] | 25 | 6 | 46 | 23 | 94 | 79 | 44 | 18 | 53 | 19 | 66 | 38 | 15 | 90 | 58 | 100 | 70 | 166 | 1110 | IC50 ([2]; 10 μM ATP, duplicate): 428 nM |
